Measured values: patent publication US20230255986A1, “PHARMACEUTICAL COMPOSITIONS FOR TREATING INFECTIONS BY A NEUROTROPIC VIRUS” (priority 2020, published 2023)
Counter-ions that a name gives are not always drawn.

Tests used:
[1] = at 20° C.; cited from earlier work
[2] = mouse, in vivo, 4 mg/kg, 5 days

Row | brain concentration, nasal versus oral administration [2] | Structure (SMILES) | water solubility [1]
1 |  | CC(C)OC(=O)[C@H](C)N[P@](=O)(CO[C@H](C)Cn1cnc2c(N)ncnc21)Oc1ccccc1 [Tenofovir alafenamide] | about 4.86 mg/ml
2 | more than 4 fold | CC(C)OC(=O)OCOP(=O)(CO[C@H](C)Cn1cnc2c(N)ncnc21)OCOC(=O)OC(C)C [Tenofovir disoproxil fumarate] | 
